PubChem BioAssay (NCI)
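Values below derive from 48-hour exposures of cells grown in 96-well plates, with endpoints linearly interpolated between the two concentrations bracketing the appropriate inhibition level. Abbreviation: GI50, concentration required for 50% inhibition of growth. TGI: total growth inhibition.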

Assays:
Experiment in all cases: DTP human tumour cell line panel, 48 h
T-47D breast = system: T-47D breast
TK-10 renal = system: TK-10 renal
NCI-H522 lung = system: NCI-H522 lung
MDA-MB-231 breast = system: MDA-MB-231 breast
NCI/ADR-RES ovarian = system: NCI/ADR-RES ovarian
HL-60(TB) leukemia = system: HL-60(TB) leukemia
SNB-75 CNS = system: SNB-75 CNS
MDA-MB-435 = system: MDA-MB-435
HS 578T breast = system: HS 578T breast

Compound	TGI (T-47D breast)	TGI (TK-10 renal)	TGI (NCI-H522 lung)	TGI (MDA-MB-231 breast)	TGI (NCI/ADR-RES ovarian)	TGI (HL-60(TB) leukemia)	TGI (SNB-75 CNS)	TGI (MDA-MB-435)	TGI (HS 578T breast)	GI50 (T-47D breast)	GI50 (MDA-MB-231 breast)	GI50 (NCI/ADR-RES ovarian)	GI50 (MDA-MB-435)
O=[N+]([O-])C(=C(N1CCCCC1)N1CCCCC1)/C(Cl)=C(\Cl)Br	65.1 µM	72 µM	33.9 µM	70.6 µM	91.8 µM	37.9 µM	34.4 µM	61.7 µM	45.4 µM	–	–	–	–
COC(=O)c1ccccc1/C=C1/Cc2ccccc2C1=O	> 100 µM	> 100 µM	> 100 µM	> 100 µM	> 100 µM	> 100 µM	> 100 µM	> 100 µM	97.3 µM	–	–	–	–
CCCCCCCCCC[C@H](O)[C@H]1CC[C@H]([C@H]2CC[C@H]([C@H](O)CC[C@H](O)CCCCCCC[C@@H](O)CC3=C[C@H](C)OC3=O)O2)O1	> 100 µM	> 100 µM	> 100 µM	> 100 µM	> 100 µM	–	79.7 µM	> 100 µM	–	2.17 µM	> 100 µM	16.5 µM	40.3 µM
C/C(N=Nc1nc2ccccc2s1)=C1/C=CC=CN1O	> 100 µM	61.3 µM	91.6 µM	> 100 µM	98.1 µM	–	–	> 100 µM	> 100 µM	–	–	–	–
Cc1nn(C(=O)Cc2ccccc2)c2c1C(c1ccccc1O)SC(N)=N2 (stereo not drawn)	> 100 µM	> 100 µM	> 100 µM	> 100 µM	–	> 100 µM	> 100 µM	> 100 µM	> 100 µM	–	–	–	–
Cc1cc(-c2nc3c(O)cccc3s2)ccc1N	> 100 µM	74.8 µM	39.9 µM	61.7 µM	50.4 µM	44.5 µM	> 100 µM	38.2 µM	40.8 µM	–	–	–	–
CC(C)(C)NC(=O)[C@H]1CC[C@H]2[C@@H]3CC=C4NC(=O)CC[C@]4(C)[C@H]3CC[C@]12C	> 100 µM	> 100 µM	> 100 µM	> 100 µM	> 100 µM	> 100 µM	99 µM	> 100 µM	> 100 µM	–	–	–	–
COc1ccc(CC(CO)NC(=O)OCc2ccccc2)cc1Oc1ccc(CC(CO)NC(=O)OCc2ccccc2)cc1 (stereo not drawn)	–	41.5 µM	18.4 µM	36 µM	–	–	11.7 µM	> 100 µM	–	–	–	–	–
Cc1ccc(S(=O)(=O)Oc2cc(N)c3c(n2)CCC3)cc1	> 100 µM	> 100 µM	–	> 100 µM	> 100 µM	> 100 µM	> 100 µM	> 100 µM	> 100 µM	–	–	–	–
CCCCOC(C)(C)/C=C/C(O)[C@](C)(O)[C@H]1[C@H](O)C[C@@]2(C)[C@@H]3CCc4c(cc(OC5OC(CO)C(O)C(O)C5O)c(O)c4C)C3(C)C(=O)C[C@]12C (stereo partly drawn)	> 100 µM	> 100 µM	> 100 µM	> 100 µM	> 100 µM	–	> 100 µM	> 100 µM	–	–	–	–	–
CCOP(=O)(OCC)C1C(CO)OC(n2ccc(=O)[nH]c2=O)C1O (stereo not drawn)	> 100 µM	> 100 µM	> 100 µM	> 100 µM	–	> 100 µM	> 100 µM	–	> 100 µM	–	–	–	–
N#Cc1c(-c2ccccc2)/c(=C\Nc2ccc(Cl)cc2)c(=O)n2c1nc1ccccc12	> 100 µM	> 100 µM	> 100 µM	> 100 µM	> 100 µM	–	> 100 µM	> 100 µM	–	–	–	–	–
COc1ccc(Nc2nc3ccc(C(F)(F)F)cc3nc2C(=O)O)cc1OC	–	–	84.6 µM	> 100 µM	57.5 µM	64.1 µM	81.5 µM	82.5 µM	96.6 µM	–	–	–	–
C=C(Cl)/C(=C\Cl)CCC(Br)C(C)C (stereo not drawn)	–	> 100 µM	39.9 µM	45.4 µM	> 100 µM	> 100 µM	> 100 µM	> 100 µM	> 100 µM	–	–	–	–
CCOC(=O)c1[nH]cc(C)c1-c1ccn(-c2ccccc2)c1	> 100 µM	> 100 µM	71.2 µM	–	> 100 µM	–	49.5 µM	> 100 µM	> 100 µM	–	–	–	–
c1ccc2c(c1)[nH]c1nc3cc(-c4ccc5nc6c(nc5c4)[nH]c4ccccc46)ccc3nc12	> 100 µM	> 100 µM	78.4 µM	97 µM	–	> 100 µM	> 100 µM	> 100 µM	> 100 µM	–	–	–	–
C1CCSCCCCSCCCCSCCCCSC1	> 100 µM	> 100 µM	> 100 µM	> 100 µM	> 100 µM	–	> 100 µM	> 100 µM	> 100 µM	–	–	–	–
CN(C)c1ccc(-c2c(C#N)c(S)n(NS(=O)(=O)c3ccccc3)c(=O)c2C#N)cc1	–	41.4 µM	44.5 µM	> 100 µM	49.5 µM	85.2 µM	> 100 µM	92.6 µM	–	–	–	–	–
CCC[C@H]1C(=O)N=C(N)N1C(=O)OCc1ccccc1	–	> 100 µM	> 100 µM	> 100 µM	> 100 µM	> 100 µM	> 100 µM	> 100 µM	> 100 µM	–	–	–	–
CCNC(=O)Nc1ccccn1	> 100 µM	> 100 µM	> 100 µM	> 100 µM	–	> 100 µM	> 100 µM	> 100 µM	> 100 µM	–	–	–	–
C=C(C)CCC(=O)[C@](C)(O)[C@H]1[C@H](O)C[C@@]2(C)[C@@H]3CCc4c(cc(OC5OC(CO)C(O)C(O)C5O)c(O)c4C)C3(C)C(=O)C[C@]12C (stereo partly drawn)	> 100 µM	> 100 µM	> 100 µM	> 100 µM	> 100 µM	–	> 100 µM	> 100 µM	–	–	–	–	–
O=c1cc(/C=C/c2ccc(O)c(O)c2)oc(/C=C/c2ccc(O)c(O)c2)c1	9.5 µM	19.4 µM	4 µM	21.6 µM	> 65.3 µM	–	15.3 µM	11.8 µM	65.9 µM	–	–	–	–
O=C1c2ccccc2CN1c1ccc(O)cc1	> 100 µM	> 100 µM	> 100 µM	> 100 µM	> 100 µM	> 100 µM	–	> 100 µM	> 100 µM	–	–	–	–
COc1ccc(N[C@H](CSc2ccc(C)cc2)c2ccc(F)cc2)cc1	> 100 µM	> 100 µM	> 100 µM	> 100 µM	> 100 µM	–	> 100 µM	> 100 µM	–	–	–	–	–
CC(C)(C)N=c1n(C(C)(C)C)oc(=O)n1C(C)(C)C	–	> 100 µM	–	> 100 µM	> 100 µM	> 100 µM	> 100 µM	–	> 100 µM	–	–	–	–
